Experimental data taken from patent publication US4834964A, “Use of charged nitroxides as NMR image enhancing agents for CSF” (M.R.I., Inc., priority 1986, dated 1989).

Key:
[1] = Stability/pharmacokinetics of nitroxide in the CSF of dogs (nitroxide concentration); type: in vivo; details: 20 umol/animal, dog, average of 4 studies
Protocol: (§1) Dogs (data is the average of 4 independent studies) under general anesthetic were injected with 2 ml of a 10 mM stock solution of 4-(N,N,N-dimethylethylamino)-2,2,6,6-tetramethylpiperidin-oxyl iodide in saline (0.9%) into the spinal cavity (3 cm below the head). At defined times, samples of CSF were removed from a catheter inserted at the point of injection. The samples were analyzed for nitroxide concentration and relaxation times. (A separate experiment determined that charged nitroxides are not bioreduced by CSF fluid. Therefore, the diminution in nitroxide concentration is attributed to active transport from the spinal cavity.) The data obtained are set forth in the table below.

[2] = T1 relaxation time of CSF after injection of nitroxide into spinal cavity of dogs; type: in vivo; parameters: T1 RELAXATION TIME: unit not given here; details: dog; for T1 RELAXATION TIME: average of 4 studies, time 0: 3.11
Protocol: as §1

[3] = NMR image enhancement with nitroxide (cranium and spinal column); type: in vivo; details: dog, 1.5 Tesla whole-body imager; 7, 21, 40, 60 and 90 min post injection, versus control images
Source text: An anesthetized dog (ca. 15 kg) as described in Example 1, in a prone position with front and hind legs extended and the head supported by a pillow in the upright position, was inserted into a small animal coil of a whole-body NMR imager (General Electric 1.5 Teslar instrument). Images of two cross-sections of the cranium and four cross-sections of the spinal column at various points below the point of injection were obtained as controls. The dog was removed from the instrument, injected with the NMR image-enhancing agent as described in Example 1 and the above-described images again obtained at 7, 21, 40, 60 and 90 minutes post injection. […] Because the loss in image enhancement is due to CSF turnover rather than decomposition of the nitroxide or passive diffusion thereof across the spinal cord, this procedure can be employed to study turnover of the CSF.

[4] = U.S. Pat. No. 3,702,831; cited from earlier work
[5] = 5 min after 2 ml of 10 mM into spinal cavity
[6] = 10 min after 2 ml of 10 mM into spinal cavity
[7] = 20 min after 2 ml of 10 mM into spinal cavity
[8] = 30 min after 2 ml of 10 mM into spinal cavity
[9] = 45 min after 2 ml of 10 mM into spinal cavity
[10] = 60 min after 2 ml of 10 mM into spinal cavity
[11] = 75 min after 2 ml of 10 mM into spinal cavity
[12] = 90 min after 2 ml of 10 mM into spinal cavity
[13] = 150 min after 2 ml of 10 mM into spinal cavity

**Q.** For `CC[N+](C)(C)C1CC(C)(C)N([O])C(C)(C)C1` [4-(N,N,N-dimethylethylamino)-2,2,6,6-tetramethylpiperidinoxyl iodide], which concentration at 5 min [1, 5] is on record?
**A.** 3800 µM

**Q.** And the concentration at 10 min [1, 6]?
**A.** 3300 µM

**Q.** What about the concentration at 20 min [1, 7] of the same molecule?
**A.** 2200 µM

**Q.** What about the concentration at 0.5 h [1, 8] of the same molecule?
**A.** 2000 µM

**Q.** And the concentration at 0.75 h [1, 9]?
**A.** 1000 µM

**Q.** And the concentration at 1 h [1, 10]?
**A.** 720 µM

**Q.** What about the concentration at 1.25 h [1, 11] of the same molecule?
**A.** 450 µM

**Q.** And the concentration at 1.5 h [1, 12]?
**A.** 220 µM

**Q.** What about the concentration at 1.75 h ([1]; 105 min after 2 ml of 10 mM into spinal cavity) of the same molecule?
**A.** 70 µM

**Q.** What about the concentration at 2.5 h [1, 13] of the same molecule?
**A.** 30 µM

**Q.** And the “T1 RELAXATION TIME” value [2, 5]?
**A.** 0.904

**Q.** And the “T1 RELAXATION TIME” value [2, 6]?
**A.** 1.147

**Q.** What about the “T1 RELAXATION TIME” value [2, 7] of the same molecule?
**A.** 1.751

**Q.** And the “T1 RELAXATION TIME” value [2, 8]?
**A.** 1.942

**Q.** And the “T1 RELAXATION TIME” value [2, 9]?
**A.** 2.439

**Q.** And the “T1 RELAXATION TIME” value [2, 10]?
**A.** 2.533

**Q.** And the “T1 RELAXATION TIME” value [2, 11]?
**A.** 2.546

**Q.** And the “T1 RELAXATION TIME” value [2, 12]?
**A.** 2.782

**Q.** What about the “T1 RELAXATION TIME” value [2, 13] of the same molecule?
**A.** 2.958

**Q.** And the “T1 relaxation time, sufficiency for enhanced NMR image” value ([2]; 150 min after injection (footnote))?
**A.** insufficient to obtain an enhanced NMR image

**Q.** And the “NMR image of CSF in spinal column” value [3]?
**A.** the CSF fluid in the spinal column was clearly imaged and produced a clear anatomical profile of the spinal column in each image, including the cranial sections and all of the 90 minute images

**Q.** With `CC(C)(C)N([O])C(C)(C)C` [di-tert-butylnitroxide] as the molecule, how does the in vivo elimination [4] read?
**A.** rapidly eliminated in vivo
